What all share (format): functional
One experiment concerns Klebsiella pneumoniae. The experiment in a line: Antimicrobial activity against Klebsiella pneumoniae ATCC 13883 assessed as growth inhibition measured after 8 hrs incubation by standard broth dilution assay.
In a further experiment the test system is Staphylococcus aureus. In words: Antimicrobial activity against methicillin-resistant Staphylococcus aureus ATCC 43300 assessed as growth inhibition measured after 8 hrs incubation by standard broth dilution assay. (Dilution methods test growth across graded concentrations, often in twofold steps.)
The test system of another experiment is Pseudomonas aeruginosa. The experiment in a line: Antimicrobial activity against Pseudomonas aeruginosa ATCC 27853 assessed as growth inhibition measured after 8 hrs incubation by standard broth dilution assay.
The subject of the next experiment is Streptococcus pneumoniae. In words: Antimicrobial activity against Streptococcus pneumoniae ATCC 49619 assessed as growth inhibition measured after 8 hrs incubation by standard broth dilution assay.

SMILES strings stand for the structures. Values after ≈ are worked out from the molar mass of the structure shown. Positions of bridges follow the written chain, without caps; N, C: chain ends. Non-standard residues stand in square brackets, D forms with d. Residues, ends and D or L forms follow the SMILES beside them. R8 = C=CCCCCCC[C@@](C)(N)C(=O)O; S5 = C=CCCC[C@](C)(N)C(=O)O; Abu = CC[C@H](N)C(=O)O

A word on the MIC: it is the smallest concentration in the dilution series that meets the test's criterion for growth inhibition.

For the molecule `CC(=O)N[C@@H](CC(C)C)C(=O)N[C@@H](CCCCN)C(=O)N[C@@H](CCCNC(=N)N)C(=O)N[C@H](C(=O)N[C@@H](Cc1c[nH]c2ccccc12)C(=O)N[C@@H](CCCCN)C(=O)N[C@@H](CCCNC(=N)N)C(=O)N[C@H](C(=O)N[C@@H](Cc1ccccc1)C(=O)N[C@@H](CCCCN)C(=O)N[C@@]1(C)CCC/C=C\CCC[C@@](C)(C(=O)N[C@@H](Cc2c[nH]c3ccccc23)C(=O)N[C@@H](CCCNC(=N)N)C(=O)N[C@@H](CCC(N)=O)C(=O)N[C@@H](CC(C)C)C(=O)N[C@@H](CCCCN)C(=O)N[C@@H](CCCCN)C(=O)N2CCC[C@H]2C(=O)N[C@H](C(=O)N[C@@H](CCCNC(=N)N)C(N)=O)C(C)C)NC(=O)[C@H](CCCNC(=N)N)NC(=O)[C@H](CCCCN)NC(=O)[C@H](CC(C)C)NC1=O)C(C)C)C(C)C` (Ac-LKRVWKRVFK[S5]LKR[S5]WRQLKKPVR-NH2; staple (Z) 11-15), the MIC in the experiment on Klebsiella pneumoniae was 38 µg/mL (≈ 11.7 µM); with Staphylococcus aureus it was 2.5 µg/mL (≈ 0.771 µM); in the experiment on Pseudomonas aeruginosa, 38.1 µg/mL (≈ 11.8 µM); in the experiment on Streptococcus pneumoniae, 37.7 µg/mL (≈ 11.6 µM).
Regarding `CC(=O)N[C@@H](CC(C)C)C(=O)N[C@@H](CCCCN)C(=O)N[C@@H](CCCNC(=N)N)C(=O)N[C@H](C(=O)N[C@@H](Cc1c[nH]c2ccccc12)C(=O)N[C@@H](CCCCN)C(=O)N[C@@H](CCCNC(=N)N)C(=O)N[C@H](C(=O)N[C@]1(C)CCCCCC/C=C\CCC[C@@](C)(C(=O)N[C@@H](CCCNC(=N)N)C(=O)N[C@@H](CCC(N)=O)C(=O)N[C@@H](CC(C)C)C(=O)N[C@@H](CCCCN)C(=O)N[C@@H](CCCCN)C(=O)N2CCC[C@H]2C(=O)N[C@H](C(=O)N[C@@H](CCCNC(=N)N)C(N)=O)C(C)C)NC(=O)[C@H](Cc2ccc(O)cc2)NC(=O)[C@H](CCCNC(=N)N)NC(=O)[C@H](CCCCN)NC(=O)[C@H](CC(C)C)NC(=O)[C@H](CC(C)C)NC(=O)[C@H](CCCCN)NC1=O)C(C)C)C(C)C` (Ac-LKRVWKRV[R8]KLLKRY[S5]RQLKKPVR-NH2; staple (Z) 9-16), the MIC in the experiment with Klebsiella pneumoniae was 38 µg/mL (≈ 11.8 µM); with Staphylococcus aureus it was 9.7 µg/mL (≈ 3.01 µM); in the experiment on Pseudomonas aeruginosa, 38 µg/mL (≈ 11.8 µM); with Streptococcus pneumoniae it was 9.6 µg/mL (≈ 2.98 µM).
Take `CC(=O)N[C@@H](CC(C)C)C(=O)N[C@@H](CCCCN)C(=O)N[C@@H](CCCNC(=N)N)C(=O)N[C@H](C(=O)N[C@@H](Cc1c[nH]c2ccccc12)C(=O)N[C@@H](CCCCN)C(=O)N[C@@H](CCCNC(=N)N)C(=O)N[C@H](C(=O)N[C@@]1(C)CCC/C=C\CCC[C@@](C)(C(=O)N[C@@H](CCCNC(=N)N)C(=O)N[C@@H](Cc2ccc(O)cc2)C(=O)N[C@@H](Cc2c[nH]c3ccccc23)C(=O)N[C@@H](CCCNC(=N)N)C(=O)N[C@@H](CCC(N)=O)C(=O)N[C@@H](CC(C)C)C(=O)N[C@@H](CCCCN)C(=O)N[C@@H](CCCCN)C(=O)N2CCC[C@H]2C(=O)N[C@H](C(=O)N[C@@H](CCCNC(=N)N)C(N)=O)C(C)C)NC(=O)[C@H](CC(C)C)NC(=O)[C@H](CC(C)C)NC(=O)[C@H](CCCCN)NC1=O)C(C)C)C(C)C` (Ac-LKRVWKRV[S5]KLL[S5]RYWRQLKKPVR-NH2; staple (Z) 9-13): the MIC turned out to be 38 µg/mL (≈ 11.7 µM) in the experiment on Klebsiella pneumoniae, 2.5 µg/mL (≈ 0.771 µM) with Staphylococcus aureus, 5 µg/mL (≈ 1.54 µM) with Pseudomonas aeruginosa and 9.6 µg/mL (≈ 2.96 µM) in the experiment on Streptococcus pneumoniae.
Take `CC(=O)N[C@@H](CC(C)C)C(=O)N[C@@H](CCCCN)C(=O)N[C@@H](CCCNC(=N)N)C(=O)N[C@H](C(=O)N[C@@H](Cc1c[nH]c2ccccc12)C(=O)N[C@@H](CCCCN)C(=O)N[C@@H](CCCNC(=N)N)C(=O)N[C@]1(C)CCCCCC/C=C\CCC[C@@](C)(C(=O)N[C@@H](Cc2c[nH]c3ccccc23)C(=O)N[C@@H](CCCNC(=N)N)C(=O)N[C@@H](CCC(N)=O)C(=O)N[C@@H](CC(C)C)C(=O)N[C@@H](CCCCN)C(=O)N[C@@H](CCCCN)C(=O)N2CCC[C@H]2C(=O)N[C@H](C(=O)N[C@@H](CCCNC(=N)N)C(N)=O)C(C)C)NC(=O)[C@H](CCCNC(=N)N)NC(=O)[C@H](CCCCN)NC(=O)[C@H](CC(C)C)NC(=O)[C@H](CC(C)C)NC(=O)[C@H](CCCCN)NC(=O)[C@H](Cc2ccccc2)NC1=O)C(C)C` (Ac-LKRVWKR[R8]FKLLKR[S5]WRQLKKPVR-NH2; staple (Z) 8-15): the MIC with Klebsiella pneumoniae was 38 µg/mL (≈ 11.5 µM); in the experiment with Staphylococcus aureus, 9.7 µg/mL (≈ 2.94 µM); in the experiment on Pseudomonas aeruginosa, 5 µg/mL (≈ 1.52 µM); with Streptococcus pneumoniae, 19 µg/mL (≈ 5.76 µM).
Taken in the same sequence, the figures for `CC(=O)N[C@@H](CC(C)C)C(=O)N[C@@H](CCCCN)C(=O)N[C@@H](CCCNC(=N)N)C(=O)N[C@H](C(=O)N[C@@H](Cc1c[nH]c2ccccc12)C(=O)N[C@@H](CCCCN)C(=O)N[C@@H](CCCNC(=N)N)C(=O)N[C@@]1(C)CCC/C=C\CCC[C@@](C)(C(=O)N[C@@H](CCCCN)C(=O)N[C@@H](CCCNC(=N)N)C(=O)N[C@@H](Cc2ccc(O)cc2)C(=O)N[C@@H](Cc2c[nH]c3ccccc23)C(=O)N[C@@H](CCCNC(=N)N)C(=O)N[C@@H](CCC(N)=O)C(=O)N[C@@H](CC(C)C)C(=O)N[C@@H](CCCCN)C(=O)N[C@@H](CCCCN)C(=O)N2CCC[C@H]2C(=O)N[C@H](C(=O)N[C@@H](CCCNC(=N)N)C(N)=O)C(C)C)NC(=O)[C@H](CC(C)C)NC(=O)[C@H](CCCCN)NC(=O)[C@H](Cc2ccccc2)NC1=O)C(C)C` (Ac-LKRVWKR[S5]FKL[S5]KRYWRQLKKPVR-NH2; staple (Z) 8-12) were 38 µg/mL (≈ 11.5 µM), 2.5 µg/mL (≈ 0.756 µM), 5 µg/mL (≈ 1.51 µM) and 37.7 µg/mL (≈ 11.4 µM).
As for `CC[C@@H]1NC(=O)[C@H](Cc2ccccc2)NC(=O)[C@H](C(C)C)NC(=O)[C@@](C)(NC(=O)[C@H](CCCCN)NC(=O)[C@H](Cc2c[nH]c3ccccc23)NC(=O)[C@@H](NC(=O)[C@H](CCCNC(=N)N)NC(=O)[C@H](CCCCN)NC(=O)[C@H](CC(C)C)NC(C)=O)C(C)C)CCC/C=C\CCC[C@@](C)(C(=O)N[C@@H](CC(C)C)C(=O)N[C@@H](CCCCN)C(=O)N[C@@H](CCCNC(=N)N)C(=O)N[C@@H](Cc2ccc(O)cc2)C(=O)N[C@@H](Cc2c[nH]c3ccccc23)C(=O)N[C@@H](CCCNC(=N)N)C(=O)N[C@@H](CCC(N)=O)C(=O)N[C@@H](CC(C)C)C(=O)N[C@@H](CCCCN)C(=O)N[C@@H](CCCCN)C(=O)N2CCC[C@H]2C(=O)N[C@H](C(=O)N[C@@H](CCCNC(=N)N)C(N)=O)C(C)C)NC1=O` (Ac-LKRVWK[S5]VF[Abu][S5]LKRYWRQLKKPVR-NH2; staple (Z) 7-11), the MIC in the experiment with Klebsiella pneumoniae came out at 4.9 µg/mL (≈ 1.53 µM); in the experiment with Staphylococcus aureus, 2.5 µg/mL (≈ 0.78 µM); in the experiment on Pseudomonas aeruginosa, 5 µg/mL (≈ 1.56 µM); in the experiment with Streptococcus pneumoniae, 19 µg/mL (≈ 5.93 µM).
In the case of `CC(=O)N[C@@H](CC(C)C)C(=O)N[C@@H](CCCCN)C(=O)N[C@@H](CCCNC(=N)N)C(=O)N[C@H](C(=O)N[C@]1(C)CCCCCC/C=C\CCC[C@@](C)(C(=O)N[C@@H](CCCCN)C(=O)N[C@@H](CCCNC(=N)N)C(=O)N[C@@H](Cc2ccc(O)cc2)C(=O)N[C@@H](Cc2c[nH]c3ccccc23)C(=O)N[C@@H](CCCNC(=N)N)C(=O)N[C@@H](CCC(N)=O)C(=O)N[C@@H](CC(C)C)C(=O)N[C@@H](CCCCN)C(=O)N[C@@H](CCCCN)C(=O)N2CCC[C@H]2C(=O)N[C@H](C(=O)N[C@@H](CCCNC(=N)N)C(N)=O)C(C)C)NC(=O)[C@H](CC(C)C)NC(=O)[C@H](CCCCN)NC(=O)[C@H](Cc2ccccc2)NC(=O)[C@H](C(C)C)NC(=O)[C@H](CCCNC(=N)N)NC(=O)[C@H](CCCCN)NC1=O)C(C)C` (Ac-LKRV[R8]KRVFKL[S5]KRYWRQLKKPVR-NH2; staple (Z) 5-12), the MIC stood at 38 µg/mL (≈ 11.7 µM) with Klebsiella pneumoniae, 9.7 µg/mL (≈ 2.98 µM) in the experiment on Staphylococcus aureus, 19.3 µg/mL (≈ 5.92 µM) in the experiment on Pseudomonas aeruginosa and 9.6 µg/mL (≈ 2.94 µM) in the experiment on Streptococcus pneumoniae.

For the origin of these results see ChEMBL document CHEMBL6153110, “Peptide Double-Stapling and Arginine N-Glycosylation Triggered the Development of Therapeutic Antimicrobial Peptides Capable of Killing Drug-Resistant Bacteria in Mice” (J Med Chem, 2025).
